The text below walks through data of US7385088B1, “Compounds from Antrodia camphorata” (Golden Biotechnology Corporation, priority 2007, dated 2008).

Holding throughout (format): cell-based
One assay concerns HepG2. Nature of the assay: MTT survival assay, hepatic cancer cells Hep G2. As to conditions: Homo sapiens, 48 hours. The text has this: (§1) Therefore Antroquinonol B and Antroquinonol C can be used in inhibiting cancer cell growth of breast cancer, lung cancer, hepatic cancer, and prostate cancer, which can further be applied in cancer treatment of breast cancer, lung cancer, hepatic cancer, prostate cancer and the like. The details of the examples are described as follows: MTT assay is commonly used to determine cell proliferation, percent of viable cells, and cytotoxicity. 3-[4,5-dimethylthiazol-2-yl]2,5-diphenyltetrazolium bromide (MTT) is a yellow dye, which can be absorbed by the living cells and be reduced to purplish blue formazan crystals by succinate tetrazolium reductase in mitochondria. Formazan formation can therefore be used to assess and determine the survival rate of cells. The NCI anti-cancer drug screen model was employed to test the anti-cancer effect of the Antroquinonol B and Antroquinono C in the present invention. The Antroquinonos isolated from example 1 were added into the culture media of human hepatic-cancer cells, Hep 3B or Hep G2, for tumor cell survival assay. Hepatic-cancer cells Hep 3B (BCRC 60434) and Hep G2 (BCRC 60025), were obtained from the Bioresources Collection and Research Center (BCRC) of the Food Industry Research and Development Institute. […] The plates were read on an ELISA reader at wavelength of 570 nm to determine the survival rates.

The subject of another assay is MDA-MB-231. Briefly: MTT survival assay, breast cancer cells MDA-MB-231. To be noted: Homo sapiens, estrogen-independent breast cancer cells, 48 hours. The text has this: (§2) Therefore Antroquinonol B and Antroquinonol C can be used in inhibiting cancer cell growth of breast cancer, lung cancer, hepatic cancer, and prostate cancer, which can further be applied in cancer treatment of breast cancer, lung cancer, hepatic cancer, prostate cancer and the like. The details of the examples are described as follows: The NCI anti-cancer drug screen model was adopted to test the anti-cancer effect of the isolated compounds from example 1 in the present invention. The isolated Antroquinonol B and Antroquinonol C from example 1 were added into the culture media of human breast-cancer cells, MCF-7 or MDA-MB-231, to test for tumor cell survival. This survival assay was carried out with the widely known MTT (3-[4,5-dimethylthiazol-2-yl]2,5-diphenyltetrazolium bromide) assay. MCF-7 cell line is originated from primary breast cancer cells (early stage), sensitive to estrogen and therefore is estrogen-dependent, while MDA-MB-231 is insensitive to estrogen and therefore is estrogen-independent, which is a difficult tumor with a low survival rate. MTT assay is commonly used to determine cell proliferation, percent of viable cells, and cytotoxicity. […] The plates were read on an ELISA reader at wavelength of 570 nm to determine the survival rates.
(Tetrazolium assays rely on reduction of a dye to a coloured formazan, in cell work by metabolically active cells.)

Another assay concerns LNCaP. Nature of the assay: MTT survival assay, prostate cancer cells LNCaP. To be noted: Homo sapiens, androgen-dependent prostate cancer cells, 48 hours. The source says:
(§3) Therefore Antroquinonol B and Antroquinonol C can be used in inhibiting cancer cell growth of breast cancer, lung cancer, hepatic cancer, and prostate cancer, which can further be applied in cancer treatment of breast cancer, lung cancer, hepatic cancer, prostate cancer and the like. The details of the examples are described as follows:
(§4) MTT assay is commonly used to determine cell proliferation, percent of viable cells, and cytotoxicity. 3-[4,5-dimethylthiazol-2-yl]2,5-diphenyltetrazolium bromide (MTT) is a yellow dye, which can be absorbed by the living cells and be reduced to purplish blue formazan crystals by succinate tetrazolium reductase in mitochondria. Formazan formation can therefore be used to assess and determine the survival rate of cells.
(§5) The NCI anti-cancer drug screen model was also employed to test the anti-cancer effect of the Antroquinonols in the present invention. Antroquinonol B and Antroquinonol C isolated from example 2 were added into the culture media of human prostate cancer cells, LNCaP or DU-145, and prostate cancer cell survival rates were analyzed with the abovementioned MTT assay. […]
(§6) The human prostate-cancer cells, LNCaP and DU-145, were cultivated in media containing fetal calf serum for 24 hours. […] The plates were read on an ELISA reader at wavelength of 570 nm to determine the survival rates.

For the next assay, the system named is A549. Nature of the assay: MTT survival assay, lung cancer cells A549. To be noted: Homo sapiens, 48 hours. The source says: Therefore Antroquinonol B and Antroquinonol C can be used in inhibiting cancer cell growth of breast cancer, lung cancer, hepatic cancer, and prostate cancer, which can further be applied in cancer treatment of breast cancer, lung cancer, hepatic cancer, prostate cancer and the like. The details of the examples are described as follows: MTT assay is commonly used to determine cell proliferation, percent of viable cells, and cytotoxicity. 3-[4,5-dimethylthiazol-2-yl]2,5-diphenyltetrazolium bromide (MTT) is a yellow dye, which can be absorbed by the living cells and be reduced to purplish blue formazan crystals by succinate tetrazolium reductase in mitochondria. Formazan formation can therefore be used to assess and determine the survival rate of cells. The NCI anti-cancer drug screen model was also employed to test the anti-lung cancer effect of the Antroquinonol B and Antroquinonol C in the present invention. The Antroquinonols isolated from example 1 were added into the culture media of human lung cancer cell A549 with the abovementioned MTT assay to analyze lung cancer cell survival rates. Human lung cancer cell A549 was obtained from the Bioresources Collection and Research Center (BCRC) of the Food Industry Research and Development Institute with an accession number of BCRC 60074. […] The plates were read on an ELISA reader at wavelength of 570 nm to determine the survival rates.

Another assay relates to MCF-7. Briefly: MTT survival assay, breast cancer cells MCF-7. To be noted: Homo sapiens, MCF7, estrogen-dependent breast cancer cells, 48 hours.
Source text: as §2

The test system of a further assay is DU-145. Briefly: MTT survival assay, prostate cancer cells DU-145. As to conditions: Homo sapiens, androgen-independent prostate cancer cells, 48 hours.
Source text: as §3, §4, §5, §6

For another assay, the system named is Hep3B. Briefly: MTT survival assay, hepatic cancer cells Hep 3B. As to conditions: Homo sapiens, 48 hours.
Source text: as §1

Converted amounts (≈) assume the structure as drawn.

As to `COC1=C(OC)[C@H](O)[C@H](C/C=C(\C)CC/C=C(/C)C/C=C/C(C)(C)O)[C@@H](C)C1=O` [Antroquinonol B], the IC50 in the assay with HepG2 is 3.32 mg/L (≈ 8.17 µM); in the assay with MDA-MB-231, 8.72 mg/L (≈ 21.4 µM); in the assay with LNCaP it was 5.67 mg/L (≈ 13.9 µM); in the assay with A549, 11.9 mg/L (≈ 29.3 µM); with MCF-7 it was 1.94 mg/L (≈ 4.77 µM); in the assay on DU-145 it was 10.1 mg/L (≈ 24.9 µM). Further, the midpoint of inhibition with Hep3B, the IC50, lay at 1.21 mg/L (≈ 2.98 µM).

With `COC1=C(OC)[C@H](O)[C@H](C/C=C(\C)CC/C=C(/C)C/C=C/C(C)(C)OC)[C@@H](C)C1=O` [Antroquinonol C], the IC50 with HepG2 turned out to be 5.12 mg/L (≈ 12.2 µM); in the assay on MDA-MB-231, 21.9 mg/L (≈ 52.1 µM); in the assay with LNCaP, 8.72 mg/L (≈ 20.7 µM); in the assay on A549 it was 8.21 mg/L (≈ 19.5 µM); in the assay with MCF-7 it was 1.17 mg/L (≈ 2.78 µM); in the assay on DU-145, 12.2 mg/L (≈ 29 µM). This compound also returned an IC50 with Hep3B of 1.32 mg/L (≈ 3.14 µM).

By IC50 is commonly meant the concentration needed to halve the response being measured. Lower therefore signals greater potency in that assay.
